Patent US9561228B2 (Celgene Avilomics Research, Inc., priority 2013, dated 2017)

What was measured:
Type in all cases: cell-based
[1] = tested on: A375 cells (malignant melanoma); experiment: Inhibition of cancer cell proliferation, A375 (CellTiterGlo, 72 hours); conditions: Homo sapiens, A-375
Outline: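 A375 melanoma cells, 3000/well, exposed 72 h at 37 °C to compound in 3-fold serial dilutions (solution added as 2× stock starting at 5,000 nM in serum-free DMEM). CellTiterGlo luminescence converted to cell number via standard curve; % inhibition vs untreated control, GI50 from curve fit.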

[2] = tested on: HCT116 cells (colorectal carcinoma); experiment: Inhibition of cancer cell proliferation, HCT116 (CellTiterGlo, 72 hours); conditions: Homo sapiens, HCT-116
Outline: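 3000 cells per well exposed to 3-fold serial compound dilutions from 5,000 nM (two-fold solution, stock level) for 72 hours at 37° C. CellTiterGlo luminescence converted to cell number via a standard curve; percent inhibition vs untreated wells, GI50 by curve fit.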

[3] = tested on: HT-29 cells (colorectal adenocarcinoma); experiment: Inhibition of cancer cell proliferation, HT-29 (CellTiterGlo, 72 hours); conditions: Homo sapiens
Outline: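 HT-29 cells seeded at 3000/well, then treated with 3-fold serial dilutions from a 5,000 nM two-fold solution in serum-free RPMI1640, untreated wells as control, for 72 h at 37° C. CellTiterGlo luminescence converted to cell number via a standard curve; GI50 from percent inhibition versus untreated growth.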

C=CC(=O)Nc1cc(CN2CCN(C(=O)c3cnccn3)CC2)ccc1Nc1nc(Nc2cc(OC)ncc2C)ncc1C(F)(F)F [Compound I-390, N-(2-((2-((2-methoxy-5-methylpyridin-4-yl)amino)-5-(trifluoromethyl)pyrimidin-4-yl)amino)-5-((4-(pyrazine-2-carbonyl)piperazin-1-yl)methyl)phenyl)acrylamide]
GI50 [1]: < 100 nM | GI50 [2]: 101 to 500 nM | GI50 [3]: < 100 nM

C=CC(=O)Nc1cc(OCC(N)=O)ccc1Nc1nc(Nc2cc(OC)ncc2C)ncc1C(F)(F)F [Compound I-398, N-(5-(2-amino-2-oxoethoxy)-2-((2-((2-methoxy-5-methylpyridin-4-yl)amino)-5-(trifluoromethyl)pyrimidin-4-yl)amino)phenyl)acrylamide]
GI50 [1]: < 100 nM | GI50 [2]: 101 to 500 nM | GI50 [3]: < 100 nM

C=CC(=O)Nc1cc(CCC(N)=O)ccc1Nc1nc(Nc2cc(OC)ncc2C)ncc1C(F)(F)F [Compound I-400, N-(5-(3-amino-3-oxopropyl)-2-((2-((2-methoxy-5-methylpyridin-4-yl)amino)-5-(trifluoromethyl)pyrimidin-4-yl)amino)phenyl)acrylamide]
GI50 [1]: 101 to 500 nM | GI50 [2]: 501 to 999 nM | GI50 [3]: 101 to 500 nM
